Where two headings read alike, the source gives them in different places.
Assays:
[1] = Population PK: plasma-modeled parent MT Cmax,ss; type: in vivo, human; details: for Cmax: both sexes, human, plasma, oral
Method: Blood samples for assessment of parent MT, N-desmethyl MT, and total MT (sum of parent MT and a labile LMT conjugate), were collected from each patient on the first treatment visit (two samples: pre-dose and approximately 3.5 h after the dose) and at each subsequent on-treatment visit. The protocol specified that PK plasma sampling was to be conducted only at sites with adequate facilities (i.e., a refrigerated centrifuge and adequate capability to freeze samples reliably). Blinded analyses were conducted at the University of Aberdeen GLP Test Facility. MT levels in plasma were measured using liquid chromatography-tandem mass spectrometry assay. The method was validated for use in the Phase III studies over the range 0.2 to 10 ng/ml. […] Model development and estimation of steady state maximum plasma concentration (Cmax,ss) were determined independently by the Institute of Clinical Pharmacodynamics (ICPD, NY, USA). Cmax,ss estimates using a model validated in Phase I studies were based on in-clinic plasma concentration data obtained on Day 1 when the dose-sampling interval was accurately recorded. The percentage of patients with Day 1 exposure levels below the lower calibration limit of the assay was used to define a proxy for placebo in post-hoc binary statistical comparisons of patients with low and high exposure to the drug with a view to informing the design of a future placebo-controlled trial. Change in ACE-R, ACE-III, FAQ, MMSE, Modified-CGIC, FRS, whole brain volume (WBV), lateral ventricular volume (LVV), and frontotemporal volume (FTV), as well as UPDRS Part III, were expressed as a function of Cmax,ss estimates grouped into four groups described in the results section. Cmax,ss values outside 3x the interquartile range were excluded from determination of concentration-response relationships, but were included in inferential statistical analyses.

[2] = system: CYP2B6; set-up: method as in Investigator's Brochure; details: ref Investigator's Brochure; cited from earlier work

SMILES: CN(C)c1ccc2c(c1)Sc1cc(N(C)C)ccc1N2 [hydromethylthionine, leuco-methylthioninium bis(hydromethanesulphonate)]
- Plasma-modeled parent MT Cmax,ss, Range ([1]; 200 mg/day): 6.800 to 14.235 ng/mL
- plasma levels at 200 mg/day relative to the highest level seen at 8 mg/day ([1]; 80 patients receiving 200 mg/day): 16 fold
- Cmax ([1]; 8 mg/day, 8 mg/day – Group 1, read-out: Plasma-modeled parent MT Cmax,ss, Mean (SD)): 0.321 ng/mL
- Cmax ([1]; 8 mg/day, 8 mg/day – Group 1, read-out: Plasma-modeled parent MT Cmax,ss, Range): 0.281 to 0.346 ng/mL
- Cmax ([1]; 8 mg/day, 8 mg/day – Group 2, read-out: Plasma-modeled parent MT Cmax,ss, Mean (SD)): 0.355 ng/mL
- Cmax ([1]; 8 mg/day, 8 mg/day – Group 2, read-out: Plasma-modeled parent MT Cmax,ss, Range): 0.346 to 0.372 ng/mL
- Cmax ([1]; 8 mg/day, 8 mg/day – Group 3, read-out: Plasma-modeled parent MT Cmax,ss, Mean (SD)): 0.387 ng/mL
- Cmax ([1]; 8 mg/day, 8 mg/day – Group 3, read-out: Plasma-modeled parent MT Cmax,ss, Range): 0.373 to 0.409 ng/mL
- Cmax ([1]; 8 mg/day, 8 mg/day – Group 4, read-out: Plasma-modeled parent MT Cmax,ss, Mean (SD)): 0.47 ng/mL
- Cmax ([1]; 8 mg/day, 8 mg/day – Group 4, read-out: Plasma-modeled parent MT Cmax,ss, Range): 0.413 to 0.583 ng/mL
- Cmax ([1]; 200 mg/day, read-out: Plasma-modeled parent MT Cmax,ss, Mean (SD)): 9.04 ng/mL
- Cmax ([1]; 200 mg/day, read-out: Plasma-modeled parent MT Cmax,ss, Range): 6.8 to 14.2 ng/mL
- induction of CYP2B6 [2]: w eak in ducer

— paper PMC7306898, “Concentration-Dependent Activity of Hydromethylthionine on Clinical Decline and Brain Atrophy in a Randomized Controlled Trial in Behavioral Variant Frontotemporal Dementia” (Journal of Alzheimer's Disease, 2020)
